{
  "source": "patent US20250362302A1",
  "about": "“INTRACELLULAR LIGATION OF PHOTOCATALYSTS FOR PHOTO-RESPONSIVE, PROBE-MEDIATED PROTEIN LABELING” (Seed Therapeutics US, Inc., priority 2022, published 2025)",
  "key": {"ikaros (IKZF1)": {"system": "ikaros (IKZF1)", "experiment": "Western blot of IKZF1 in lysates of HALO.CRBN Jurkat cells exposed to pomalidomide or lenalidomide", "assay_type": "cell-based", "details": "lanes, HALO.CRBN Jurkat cell lysates, compared with control or 1 μM pomalidomide lanes", "excerpt": "A stable cell line, using Jurkat cells, was created where native cereblon (CRBN) was knocked out and a fusion of HaloTag protein and CRBN was expressed (referred to herein as “the HALO.CRBN Jurkat cell line”). […] The gel was stained using mouse anti-IKZF1 antibody. The dilution was 1:1000 and the exposure was about 10 seconds."}, "SOS1": {"system": "SOS1", "experiment": "Photo-responsive labeling within live cells, streptavidin bead immunoprecipitation of biotinylated proteins, Western blot with anti-SOS1 antibody", "assay_type": "cell-based, human", "details": "KRAS (G12DHaloTag/+) protein reporter cells with photocatalyst, labeling partner and irradiation; no distinct band in control cells HD-103-037 and HD-PAR-006", "method": "(§1) Initially, reagents were prepared. An Ir—Cl photocatalyst master stock solution was prepared at 10 mM in 100% DMSO. The specific Ir—Cl photocatalyst used in this example was the photocatalyst prepared in accordance with Example 2. To create a working solution for the Ir—Cl catalyst, a portion of the Ir—Cl catalyst master stock solution was diluted in 1×DPBS, such that the final Ir—Cl catalyst concentration was 10 μM and the DMSO concentration was 0.1%. A labeling agent master stock was also prepared, having a 25 mM concentration in 100% DMSO. The particular labeling agent used was the one prepared in accordance with Example 1. To create a working solution for the labeling agent, a portion of the labeling agent master stock solution was diluted in 1×DPBS, such that the final concentration of labeling agent was 250 μM and the DMSO concentration was 1%.\n(§2) A human KRAS (G12DHaloTag®/+) cell line (HD-103-021, Horizon Discovery) with protein reporter was grown to 80-90% confluence. Cells were harvested and pelleted down by centrifuging at 1000 g, for 5 minutes at 4° C. (Eppendorf Centrifuge 5427 R). Supernatant was discarded and the cell pellet was resuspended in ice cold 1×DPBS (Gibco™) and mixed. Subsequently, cells were again pelleted down by centrifuging at 1000 g, for 5 minutes at 4° C. Supernatant was discarded and fresh ice cold 1×DPBS was added to the pellet and mixed. […]"}, "Halotag-KRAS(G12D)": {"system": "Halotag-KRAS(G12D)", "experiment": "Halotag chaser assay (TAMRA-Cl) for Ir-photocatalyst cell permeability, fluorescent Western blot", "assay_type": "cell-based, human", "method": "Photo-responsive labeling within cells was carried out as described similar to the procedure as described in Example 11. An Ir-photocatalyst master stock solution was prepared at 10 mM or 5 mM in 100% DMSO. KRAS (G12DHaloTag®/+) cells (HD-103-021, Horizon Discovery) were grown to 90% confluency in 6-well cell culture dishes using phenol-free RPMI1640 media (Gibco™). […] The cells were incubated for 1 or 2 hours at 37° C. The media was then aspirated and cells were gently washed twice with 2 mL fresh RPMI 1640, with an incubation of 10 minutes per wash at 37° C. TAMRA-Cl fluorescent dye (Promega, 68251) was diluted with OptiMEM to a 5 μM working solution. 0.8 mL of the working dye solution was added to the cells, and allowed to incubate for 15 minutes at 37° C. The cells were gently washed twice with 2 mL cold DPBS, aspirated, then added 200 μL RIPA supplemented with protease-phosphatase inhibitor (Halt™ Protease and Phosphatase Inhibitor Cocktail (100×)) and mixed briefly. The cell lysate was collected into 1.5 mL tubes. The cell lysate was sonicated using a probe-sonicator (SONICS vibra-cell Fisher Scientific) with 15 s on, 10 s off, at 30% amplitude for 3 cycles. The cell lysate was centrifuged at 18,000 g at 4° C. for 20 minutes. […] Cell lysates were processed and analyzed by fluorescent Western blot with anti-TAMRA and anti-β-Actin (for normalization) antibodies. […]"}, "PI3 Kinase P110α": {"system": "PI3 Kinase P110α", "experiment": "Photo-responsive labeling within live cells, HALO-tag immunoprecipitation, Western blot with Anti-PI3k antibody", "assay_type": "cell-based, human", "details": "labeling agent 250 μM, photocatalyst 10 μM, irradiation 450 nm 10 minutes, cell line 021", "method": "as §1, §2"}, "[1]": {"system": "bovine serum albumin (BSA)", "experiment": "Catalyst-dependent biotinylation of bovine serum albumin, fluorescent Western blot with anti-biotin antibody", "assay_type": "biochemical", "details": "labeling reagent WH8 100 uM, BSA 10 uM, catalyst 5 μM and 10 μM, 5 minutes irradiation at 450 nm; no band without irradiation", "method": "Photocatalyst was combined with diazirine labeling compounds 8 or 9 and BSA in DPBS to yield reaction mixtures with 200 uL total solution volume. BSA concentration was 10 uM; diazirine labeling compound was fixed as 100 uM; the final catalyst concentration was set as 5 uM and 10 uM respectively. These samples were then either placed in the dark or irradiated with visible (450 nm) light in a M2 photoreactor for 5 minutes at 100% intensity. 60 uL samples were then removed, combined with 20 μL of 4× reducing SDS-Laemmli buffer (with 1:10 1 M DTT), mixed and heated at 95° C. for 5 minutes. 15 μL of each sample was then analyzed by Fluorescent western blot.\nThe sample was loaded into a 4-20% Tris-Glycine gel (Bio-Rad). Gel was run at 120V for 80 minutes or until the dye front reaches the end of the gel. Proteins were transferred from gel to nitrocellulose membrane using the iBlot 2 semi-dry Transfer apparatus. The membrane was used to detect total protein for normalization which follow the manufacturer's manual (Revert™ 700 Total Protein Stain, LI-COR). After that, the membrane rinsed once with TBST and blocked with h Intercept® Blocking Buffer for 1 hour at RT with gentle shaking. After blocking, membrane was washed with TBST and requisite antibody was added (1:1000) and kept for overnight at 4° C. on a shaker. […]"}},
  "data": [
    {"smiles": "Nc1cccc2c1C(=O)N(C1CCC(=O)NC1=O)C2=O", "note": "(centres unmarked) [pomalidomide]", "values": [
      {"measurement": "IKZF1 level in Western blot (anti-IKZF1)", "setting": "ikaros (IKZF1)", "value": "observably less IKZF1"}
    ]},
    {"smiles": "Cc1ccnc(-c2cc(CCC(=O)NCCOCCOCCOCCOCCCCCCCl)ccn2)c1.Fc1cc(F)c(-c2ccc(C(F)(F)F)cn2)[c]([Ir+][c]2cc(F)cc(F)c2-c2ccc(C(F)(F)F)cn2)c1", "note": "[IR1]", "values": [
      {"measurement": "SOS1 band after streptavidin IP (FIG. 5F)", "setting": "SOS1", "value": "distinct SOS1 band observed"},
      {"measurement": "binding to the Halotag (Halo-chaser assay, anti-TAMRA)", "setting": "Halotag-KRAS(G12D); FIG. 21A, 1 hour treatment, 5 μM and 10 μM photocatalyst, KRAS (G12DHaloTag/+) cells, compared to DMSO control", "value": "a little less binding to the Halo tag"},
      {"measurement": "binding to the Halotag (Halo-chaser assay, anti-TAMRA)", "setting": "Halotag-KRAS(G12D); FIG. 21B, 5 μM photocatalyst", "value": "majority binding"},
      {"measurement": "PI3 Kinase P110α band after HALO-tag IP (FIG. 4A)", "setting": "PI3 Kinase P110α", "value": "distinct band of PI3 Kinase P110α"}
    ]},
    {"smiles": "[N-]=[N+]=Nc1ccc(C(=O)NCCOCCOCCOCCNC(=O)CCCC[C@@H]2SC[C@@H]3NC(=O)N[C@@H]32)cc1", "note": "[WH8, 4-azido-N-(13-oxo-17-((3aS,4S,6aR)-2-oxohexahydro-1H-thieno[3,4-d]imidazol-4-yl)-3,6,9-trioxa-12-azaheptadecyl)benzamide]", "values": [
      {"measurement": "SOS1 band after streptavidin IP (FIG. 5F)", "setting": "SOS1", "value": "distinct SOS1 band observed"},
      {"measurement": "biotinylation of BSA (anti-biotin fluorescent Western blot)", "setting": "[1]", "value": "biotinylated BSA bands"},
      {"measurement": "PI3 Kinase P110α band after HALO-tag IP (FIG. 4A)", "setting": "PI3 Kinase P110α", "value": "distinct band of PI3 Kinase P110α"}
    ]}
  ]
}
